Measured values as given in patent publication US7994185B2, “Benzene sulfonamide thiazole and oxazole compounds” (Glaxo Smith Kline LLC, priority 2008, dated 2011).
Structures can show the parent of a compound that is named as a salt. Where two headings read alike, the source gives them in different places.

What was measured:
[1] = molecular target: T1, BRAFV600E full-length (amino acids 2-766) (Homo sapiens, UniProt P15056, V600E); assay: B-Raf Accelerated MEK ATPase assay (BRAMA); assay type: biochemical; details: categorized
T1 construct: His6-tagged BRAFV600E full-length (amino acids 2-766); His6; made in house; host or cells: baculovirus expression system (insect cells)
Summary of the method: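 Coupled-enzyme readout: ADP generated by MEK-mediated ATP hydrolysis, uncoupled from ERK phosphorylation, is linked to NADH oxidation through pyruvate kinase and lactate dehydrogenase.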

[2] = system: pERK (pERK/tERK); assay: Pharmacodynamic effect, pERK/tERK in A375P F11s xenograft tumors; assay type: in vivo, mice; details: Mus musculus, read-out: inhibition of pERK (pERK/tERK)
Method: Animals were housed in pathogen free conditions and handled with aseptic technique. […] Detached cells were collected, centrifuged (1500 rpm, 5 min, 4° C.) and rinsed to remove the trypsin solution. Cells were resuspended in PBS without magnesium or calcium and counted. Cells were spun as previously to remove PBS and a single cell suspension was created either in 50% Matrigel: 50% PBS (v:v) or 100% PBS so that a 100 μL subcutaneous injection would deliver the required number of cells per mouse. The A375P F11s melanoma line was injected with Matrigel at 4 million cells per mouse. Tumors were established (˜150-300 mm^3) for all cell lines within 2-4 weeks post-injection.
At 2 h following oral administration of compound mice were euthanized using carbon dioxide. Tumors were carefully excised, homogenized using Medimachine (BD Bioscience) with 1 ml of lysis buffer (25 mM Tris-HCl (pH 7.5), 2 mM EDTA (pH 8.0), 2 mM EGTA (pH 8.0), 1% Triton X-100, 0.1% SDS, 50 mM Na—B—PO4, 2 mM NaVO4, 4 mM Na-Pyr-PO4, 2× phosphatase inhibitor cocktail. Crude homogenate was transferred to a 12 ml polypropylene tube containing 1.5 ml of lysis buffer and kept on ice. Following homogenization of all samples, 1 ml of homogenate was transferred to an eppendorf tube and centrifuged at 14,000 rpm for 15 min at 4° C. Five hundred microliter of clarified lysate was transferred to a new tube, flash frozen and processed for quantitation of pERK and tERK using western blot or Elisa (MSD) assays. […] BioRad dye was added to BSA dilutions and diluted test lysates. […] Comparison to the standard curve provides a relative measurement of protein concentration. […] The gels were transferred onto nitro-cellulose membranes using the iBlot transfer apparatus, which were then blocked and incubated with different primary antibodies overnight at 4° C. Western blots dually probed against pERK and tERK were scanned using LI-COR Odyssey® reader. A ratio of the immunofluorescent density obtained for pERK/tERK is calculated and expressed as a ratio (in percentage) to control untreated samples. For determination of pERK/tERK ratio by ELISA, MesoScale Discovery (MSD) (cat# K15107) plate were used according to manufacturer's instructions. In brief, MSD plates were block with 150 μl/well of blocking buffer for 1 hr before being washed 4 times with 200 μl of washing buffer. Thirty microliter (30 μl) of serially diluted samples was added to wells and plates were incubated overnight at 4° C. under slow agitation (˜500 rpm). Plates were washed 4 times in 200 μl 1× Tris wash buffer and 25 μl detection antibody solution was added to all wells and incubated at room temperature for 1 hr (˜500 rpm). Plates were washed 4 times in 200 μl wash buffer and 150 μl of read buffer was added to all wells. Plates were read on MSD.SI6000. In this assay vehicle and compound treated samples were tested at 4 different dilutions to allow linear range coverage of the assay. From pERK and tERK signal, background (BSA signal) was subtracted and ratio of pERK/tERK determined and normalized to untreated vehicle samples, arbitrarily set at 100%.

[3] = system: Human melanoma cancer cells (SK-MEL-28); assay: Cell growth inhibition assay (CellTiter-Glo), SK-MEL-28; assay type: cell-based
[4] = system: Human colon tumor cells (Colo205); assay: Cell growth inhibition assay (CellTiter-Glo), Colo205; assay type: cell-based
Summary of the method: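 Growth is estimated from total cellular ATP measured by CellTiter-Glo luminescence after a 3-day compound exposure at 37 °C. Compounds are tested as 1:3 dilution series in 0.2% final DMSO, with inhibition expressed relative to vehicle-treated wells.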

[5] = system: A375P F11s; assay: 3-day proliferation assays, selection of A375P F11s clone; assay type: cell-based, human; details: A375P F11s subclone of A375P
Method: Activity of select exemplified compounds was tested in vivo against A375 PF11s (melanoma cell line encoding a B-Raf V600E mutation) xenograft mouse model. The A375P F11s cell line, encoding a mutation for BRAF^V600E, was subcloned from the A375P human melanoma cell line (obtained from ATCC, Cat # CRL-1619) by limiting dilution and selected based on high (90%) sensitivity to the BRAF inhibitor, SB-590885 (commercially available), in 3-day proliferation assays. The selected clone (A375P F11s) was isolated and mutation in B-Raf (T1799A) encoding the V600E amino acid change was reconfirmed.

[6] = B-Raf Activity, Table 1a, highest pIC50 for the one or more runs
[7] = B-Raf pIC50, Table 1b, later runs, average pIC50 for the one or more runs
[8] = A375P F11s xenograft tumors, single oral dose of 100 mg/kg, 2 h after administration
[9] = SK-MEL-28, 72 h, Table 3a, 3 days incubation, read-out: Activity in SK-MEL-28 Tumor Cells
[10] = SK-MEL-28, Table 3b, later runs, average for the one or more runs, categorized, read-out: IC50 for SK-MEL-28
[11] = COLO 205, 72 h, Table 2a, 3 days incubation, read-out: Activity in Colo205 Tumor Cells
[12] = COLO 205, Table 2b, later runs, average for the one or more runs, categorized, read-out: IC50 for Colo205
[13] = Table 1b, later runs, average pIC50 for the one or more runs, read-out: B-Raf pIC50 (converted)

T1 sequence (P15056 2-766 V600E): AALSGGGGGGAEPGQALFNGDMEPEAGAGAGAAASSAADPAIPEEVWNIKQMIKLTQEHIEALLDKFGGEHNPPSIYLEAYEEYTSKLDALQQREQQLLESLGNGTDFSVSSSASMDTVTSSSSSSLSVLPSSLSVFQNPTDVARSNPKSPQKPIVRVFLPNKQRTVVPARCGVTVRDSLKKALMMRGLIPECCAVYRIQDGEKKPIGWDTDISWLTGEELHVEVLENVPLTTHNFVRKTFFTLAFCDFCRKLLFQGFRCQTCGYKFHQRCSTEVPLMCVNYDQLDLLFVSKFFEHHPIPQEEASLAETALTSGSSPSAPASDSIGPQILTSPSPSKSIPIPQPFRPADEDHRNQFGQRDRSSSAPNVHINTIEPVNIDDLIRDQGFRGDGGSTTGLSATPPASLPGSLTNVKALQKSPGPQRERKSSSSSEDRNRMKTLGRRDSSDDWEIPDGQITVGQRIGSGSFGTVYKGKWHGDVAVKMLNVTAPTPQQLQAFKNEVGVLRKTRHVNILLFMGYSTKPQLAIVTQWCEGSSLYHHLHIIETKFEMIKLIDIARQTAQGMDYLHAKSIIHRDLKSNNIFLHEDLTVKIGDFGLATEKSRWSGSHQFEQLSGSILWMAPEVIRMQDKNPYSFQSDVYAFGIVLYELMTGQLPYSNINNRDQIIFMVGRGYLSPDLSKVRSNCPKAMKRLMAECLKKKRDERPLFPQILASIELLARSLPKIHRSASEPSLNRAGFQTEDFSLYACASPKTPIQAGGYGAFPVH

| SMILES | IC50 [1, 6] [µM] | IC50 [1, 7] [µM] | inhibition at 100 mg/kg [2, 8] [%] | IC50 [3, 9] [µM] | IC50 [3, 10] [µM] | IC50 [4, 11] [µM] | IC50 [4, 12] [µM] | IC50 [1, 13] [µM] | inhibition at 100 mg/kg ([2]; A375P, po, 2 h) [%] | sensitivity to the BRAF inhibitor in 3-day proliferation assays [5] [%] |
| --- | --- | --- | --- | --- | --- | --- | --- | --- | --- | --- |
| Nc1nccc(-c2sc(N3CCOCC3)nc2-c2cccc(NS(=O)(=O)c3ccco3)c2Cl)n1 [Example 24, N-{3-[5-(2-Amino-4-pyrimidinyl)-2-(4-morpholinyl)-1,3-thiazol-4-yl]-2-chlorophenyl}-2-furansulfonamide] | < 0.1 | ≤ 0.00316 | ≥ 30 | < 0.1 | 0.1 to 1 | < 0.1 | 0.1 to 1 | – | – | – |
| Cc1nccc(-c2sc(C3CCOCC3)nc2-c2cccc(NS(=O)(=O)c3c(F)cccc3F)c2Cl)n1 [Example 25, N-{2-Chloro-3-[5-(2-methyl-4-pyrimidinyl)-2-(tetrahydro-2H-pyran-4-yl)-1,3-thiazol-4-yl]phenyl}-2,6-difluorobenzenesulfonamide trifluoroacetate] | < 0.1 | – | ≥ 30 | < 0.1 | < 0.1 | 0.1 to 1 | 0.1 to 1 | 0.00316 to 0.0316 | – | – |
| O=S(=O)(Nc1cccc(-c2nc(C3CCOCC3)sc2-c2ccncn2)c1Cl)c1c(F)cccc1F [Example 26, N-{2-Chloro-3-[5-(4-pyrimidinyl)-2-(tetrahydro-2H-pyran-4-yl)-1,3-thiazol-4-yl]phenyl}-2,6-difluorobenzenesulfonamide] | < 0.1 | ≤ 0.00316 | ≥ 30 | < 0.1 | < 0.1 | < 0.1 | < 0.1 | – | – | – |
| CC(C)(C)c1nc(-c2cccc(NS(=O)(=O)c3c(F)cccc3F)c2F)c(-c2ccnc(N)n2)s1 [Example 58, N-{3-[5-(2-amino-4-pyrimidinyl)-2-(1,1-dimethylethyl)-1,3-thiazol-4-yl]-2-fluorophenyl}-2,6-difluorobenzenesulfonamide] | – | – | – | < 0.1 | – | < 0.1 | – | – | ≥ 30 | – |
| Nc1nccc(-c2sc(N3CCOCC3)nc2-c2cccc(NS(=O)(=O)c3c(F)cccc3F)c2F)n1 [Example 59, N-{3-[5-(2-Amino-4-pyrimidinyl)-2-(4-morpholinyl)-1,3-thiazol-4-yl]-2-fluorophenyl}-2,6-difluorobenzenesulfonamide] | < 0.1 | – | ≥ 30 | 0.1 to 1 | 0.1 to 1 | 0.1 to 1 | 0.1 to 1 | 0.00316 to 0.0316 | – | – |
| Nc1nccc(-c2sc(C3CCOCC3)nc2-c2cccc(NS(=O)(=O)c3c(F)cccc3F)c2F)n1 [Example 64, N-{3-[5-(2-amino-4-pyrimidinyl)-2-(tetrahydro-2H-pyran-4-yl)-1,3-thiazol-4-yl]-2-fluorophenyl}-2,6-difluorobenzenesulfonamide] | < 0.1 | ≤ 0.00316 | ≥ 30 | < 0.1 | < 0.1 | < 0.1 | < 0.1 | – | – | – |
| Cc1nccc(-c2sc(C(C)(C)C)nc2-c2cccc(NS(=O)(=O)c3cc(F)ccc3F)c2F)n1 [Example 65, N-{3-[2-(1,1-dimethylethyl)-5-(2-methyl-4-pyrimidinyl)-1,3-thiazol-4-yl]-2-fluorophenyl}-2,5-difluorobenzenesulfonamide] | < 0.1 | ≤ 0.00316 | ≥ 30 | < 0.1 | < 0.1 | < 0.1 | < 0.1 | – | – | – |
| CC(C)(C)c1nc(-c2cccc(NS(=O)(=O)c3cc(F)ccc3F)c2F)c(-c2ccncn2)s1 [Example 66, N-{3-[2-(1,1-Dimethylethyl)-5-(4-pyrimidinyl)-1,3-thiazol-4-yl]-2-fluorophenyl}-2,5-difluorobenzenesulfonamide] | < 0.1 | ≤ 0.00316 | ≥ 30 | < 0.1 | < 0.1 | < 0.1 | < 0.1 | – | – | – |
| Nc1nccc(-c2sc(N3CCOCC3)nc2-c2cccc(NS(=O)(=O)c3cc(F)ccc3F)c2Cl)n1 [Example 156] | < 0.1 | ≤ 0.00316 | ≥ 30 | < 0.1 | < 0.1 | < 0.1 | < 0.1 | – | – | – |
| Cn1cc(S(=O)(=O)Nc2cccc(-c3nc(C4CCOCC4)sc3-c3ccnc(N)n3)c2F)cn1 [Example 286, N-{3-[5-(2-amino-4-pyrimidinyl)-2-(tetrahydro-2H-pyran-4-yl)-1,3-thiazol-4-yl]-2-fluorophenyl}-1-methyl-1H-pyrazole-4-sulfonamide hydrochloride] | – | – | – | – | 0.1 to 1 | – | 0.1 to 1 | 0.00316 to 0.0316 | – | – |
| Cn1ccnc1S(=O)(=O)Nc1cccc(-c2nc(C(C)(C)C)sc2-c2ccnc(N)n2)c1F [Example 287, N-{3-[5-(2-amino-4-pyrimidinyl)-2-(1,1-dimethylethyl)-1,3-thiazol-4-yl]-2-fluorophenyl}-1-methyl-1H-imidazole-2-sulfonamide hydrochloride] | – | – | – | – | 0.1 to 1 | – | 0.1 to 1 | 0.00316 to 0.0316 | – | – |
| CC(C)(CO)c1nc(-c2cccc(NS(=O)(=O)c3c(F)cccc3F)c2F)c(-c2ccnc(N)n2)s1 [Example 295, N-{3-[5-(2-amino-4-pyrimidinyl)-2-(2-hydroxy-1,1-dimethylethyl)-1,3-thiazol-4-yl]-2-fluorophenyl}-2,6-difluorobenzenesulfonamide] | – | ≤ 0.00316 | – | – | < 0.1 | – | < 0.1 | – | – | – |
| CN(C)CCOc1ccc(-c2nc(-c3ccncc3)c(-c3ccc4c(c3)CC/C4=N\O)[nH]2)cc1 [SB-590885] | – | – | – | – | – | – | – | – | – | 90 |
